Measured values reported in patent publication US6608070B1, “2,3-substituted indole compounds as anti-inflammatory and analgesic agents” (priority 1999, dated 2003).

Compound: Cc1cc(C)nc(C(=O)c2[nH]c3ccc(Cl)cc3c2CC(=O)O)c1 [Example 120, [5-Chloro-2-(4,6-dimethylpyridine-2-carbonyl)-1H-indol-3-yl]acetic Acid]
- melting point: 233 to 235 °C

Compound: O=C(O)Cc1c(C(=O)c2cccnc2)[nH]c2cc(Cl)ccc12 [Example 92, [6-Chloro-2-(pyridine-3-carbonyl)-1H-indol-3-yl]acetic Acid]
- melting point: 267 to 268 °C

Compound: Cc1cnc(C(=O)c2[nH]c3ccc(Cl)cc3c2CC(=O)O)s1 [Example 233, [5-Chloro-2-(5-methylthiazole-2-carbonyl)-1H-indol-3-yl]acetic Acid]
- melting point: 231 to 233 °C

Compound: COCc1ccoc1C(=O)c1[nH]c2cc(Cl)ccc2c1CC(=O)O [Example 240, [6-Chloro-2-[3-methoxymethyl-2-furoyl]-1H-indol-3-yl]acetic Acid]
- melting point: 212 to 213 °C

Compound: O=C(O)Cc1c(C(=O)c2nccs2)[nH]c2ccc(Cl)cc12 [Example 41, [5-Chloro-2-(thiazole-2-carbonyl)-1H-indol-3-yl]acetic Acid]
- melting point: 230 to 231 °C

Compound: Cc1nnsc1C(=O)c1[nH]c2ccc(Cl)cc2c1CC(=O)O [Example 229, [5-Chloro-2-(4-methyl-1,2,3-thiadiazole-5-carbonyl)-1H-indol-3-yl]acetic Acid]
- melting point: 229 to 230 °C

Compound: Cc1cnc(C(=O)c2[nH]c3ccc(Cl)cc3c2CC(=O)O)cc1C [Example 102, [5-Chloro-2-(4,5-dimethylpyridine-2-carbonyl)-1H-indol-3-yl]acetic Acid]
- melting point: 245 to 246 °C

Compound: CCc1ccnc(C(=O)c2[nH]c3cc(Cl)ccc3c2CC(=O)O)c1 [Example 58, [6-Chloro-2-(4-ethylpyridine-2-carbonyl)-1H-indol-3-yl]acetic Acid]
- melting point: 215 to 216 °C (dec.)

Compound: O=C(O)Cc1c(C(=O)c2cc(Cl)ccn2)[nH]c2ccc(Cl)cc12 [Example 90, [5-Chloro-2-(4-chloropyridine-2-carbonyl)-1H-indol-3-yl]acetic Acid]
- melting point: 243 to 244 °C

Compound: Cc1cc(C(=O)c2[nH]c3ccc(Cl)cc3c2CC(=O)O)no1 [Example 225, [5-Chloro-2-(5-methylisoxazole-3-carbonyl)-1H-indol-3-yl]acetic Acid]
- melting point: 253 to 255 °C

Compound: CC(C)(C)c1ccnc(C(=O)c2[nH]c3ccc(Cl)cc3c2CC(=O)O)c1 [Example 72, [2-(4-tert-Butylpyridine-2-carbonyl)-5-chloro-1H-indol-3-yl]acetic Acid]
- melting point: 209 to 211 °C

Compound: CCOC(=O)C=Cc1ccc(Cl)cc1N(CC(=O)c1ccc(Cl)cc1)S(=O)(=O)c1ccc(C)cc1 [Example 295, 3-{4-Chloro-2-[[2-(4-chloro-phenyl)-2-oxo-ethyl]-(toluene-4-sulfonyl)-amino]-phenyl}-acrylic Acid Ethyl Ester]
- melting point: 162 to 165 °C

Compound: CC(C)(O)c1ccoc1C(=O)c1[nH]c2cc(Cl)ccc2c1CC(=O)O [Example 238, [6-Chloro-2-[3-(1-hydroxy-1-methylethyl)-2-furoyl]1H-indol-3-yl]acetic Acid]
- melting point: 229 to 230 °C

Compound: O=C(O)Cc1c(C(=O)c2cc3ccccc3cn2)[nH]c2cc(Cl)ccc12 [Example 223, [6-Chloro-2-(isoquinoline-3-carbonyl)-1H-indol-3-yl]acetic Acid]
- melting point: 236 to 237 °C

Compound: O=C(O)Cc1c(C(=O)c2cccs2)[nH]c2cc(Cl)ccc12 [Example 236, [6-Chloro-2-(2-thienyl)carbonylindol-3-yl]acetic Acid]
- melting point: 177 to 178 °C

Compound: O=C(O)Cc1c(C(=O)c2ccc(Cl)cn2)[nH]c2cc(Cl)ccc12 [Example 88, [6-Chloro-2-(5-chloropyridine-2-carbonyl)-1H-indol-3-yl]acetic Acid]
- melting point: 242 to 244 °C

Compound: O=C(O)Cc1c(C(=O)c2ccccc2)[nH]c2cc(Cl)ccc12 [Example 2, (2-Benzoyl-6-chloro-1H-indol-3-yl)acetic Acid]
- melting point: 183 to 186 °C
